“Also recorded” adds a separate entry of the source.
What was measured:
platelets = experiment: PolyP levels in platelets isolated from TNP-treated mice; assay type: in vivo, mouse; conditions: platelets from mice treated with TNP 20 mg/kg once a day for 10 days, vs DMSO-treated controls
Description: (§1) FIG. 6A: PolyP levels in platelets. Mice were treated with TNP or DMSO alone for 10 days (20 mg/kg body weight, once a day). The experiment was repeated three times and the data were pooled and analyzed together. Data shown are means±SEM (n=7 mice per group). FIG. 6B: LPS-induced polyP secretion in neutrophil-platelet co-cultures. Neutrophils (5×10^6) isolated from DMSO (N-DMSO) or TNP (N-TNP)-treated mice and platelets (1×10^9) isolated from DMSO (P-DMSO) or TNP (P-TNP)-treated mice were incubated in the presence of LPS (5 μg/mL) for 2 h at 37° C. Data shown are means±SEM of four experiments. FIG. 6C: LPS-induced NPA formation. Neutrophils and platelets were isolated from DMSO (untreated) and TNP-treated mice and incubated with LPS (1 μg/mL) for 2 h at 37° C. […] NPA formation was analyzed at 24 hr after the LPS instillation. […] FIG. 6H: Recruited neutrophils in alveolar spaces were quantified as volume fraction of the alveolar space using standard point-counting morphometry. […] FIG. 6I: Pulmonary edema formation was quantified as the percentage of edema area in the total parenchymal region using. […] FIG. 6J: Lung vascular permeability was evaluated by BALF total protein level. […] FIG. 6K: Lung wet weight-to-dry weight ratio was measured at 24 hr after E. coli instillation. […] NPA % was calculated as the percentage of CD66+, CD16+ and CD41 triple-positive cells (NPAs) among all CD66+ and CD16+ cells. […]

[1] = system: neutrophil-platelet co-cultures; experiment: LPS-induced polyP secretion in neutrophil-platelet co-cultures; assay type: cell-based, mouse; conditions: cells from TNP-treated mice, LPS 5 μg/mL, 2 h, 37° C., vs DMSO-treated controls
Description: as §1

[2] = system: neutrophils and platelets; experiment: Ex vivo neutrophil-platelet aggregate (NPA) formation, FACS; assay type: cell-based, mouse
Description: Neutrophil-platelet aggregation. Mouse and human neutrophils were isolated and purified as previously described (31). Whole blood was collected into ACD tubes and platelet-rich plasma was isolated by centrifuging twice at 100×g for 5 min. Neutrophils (0.5×106) and platelets (5×106) were incubated for 2 h at 37° C. with LPS in 1 ml Tyrode's buffer (Sigma) supplemented with 1% BSA. After incubation, mouse neutrophils and platelets were stained with CD11b, CD41, and Ly6G and analyzed by flow cytometry to detect NPAs. Human neutrophils and platelets were stained with CD66, CD16, and CD41. NPA % was calculated as the percentage of CD66+, CD16+ and CD41 triple-positive cells (NPAs) among all CD66+ and CD16+ cells.
Flow cytometry. Murine neutrophils and platelets were incubated as described above. Cells were then harvested, washed with ice-cold PBS, and stained with APC0-CD11b (eBioscience), PE-CY7-Ly6G (BD Bioscience), FITC-CD41 (eBioscience), and […] to detect leukocyte and platelet antigens. Samples were examined with a FACSCanto II™ flow cytometer (Becton Dickinson). Neutrophils were gated by their forward- and side-scatter characteristics and by their Ly-6G+/CD11b+ (neutrophil) expression pattern (30). Platelets were detected by CD41 staining NPAs were Ly-6G+CD41+. All data were analyzed using FlowJo™ software (TreeStar; FlowJo LLC).

[3] = system: LPS-induced lung inflammation; experiment: LPS-induced lung inflammation in mice; assay type: in vivo, mouse; conditions: TNP-treated mice, 5 mg/kg LPS intratracheal, 24 hr
Description: Bacteria or LPS-induced acute pneumonia. After anesthesia with ketamine hydrochloride (100 mg/kg intraperitoneally (i.p.)) and xylazine (10 mg/kg i.p.), mouse tracheas were surgically exposed and a total volume of 40 μl of saline, a dose of 2×10^6 cfu of E. coli (strain 19138; American Type Culture Collection), a dose of 5×10^8 cfu of Stapyhlococcus aureus (strain 10390; American Type Culture Collection), or the indicated amount of LPS (LPS from E. coli O111:B4 or LPS from E. coli O157:H7; Sigma-Aldrich was instilled intratracheally via an angiocatheter inserted through the trachea and into the left bronchus. Colloidal carbon (1%) was included in the instillate to indicate deposition. […]
Neutrophil accumulation. […] The total number of cells in the BALF was counted by hemocytometry. […] The percentage of neutrophils in the whole population (% PMN) was determined accordingly. Total numbers of neutrophils (#PMN) recruited was calculated as follows: [#PMN]=[cell density]×volume×[% PMN]. Emigrated neutrophils in the alveolar air spaces were also quantified by morphometric analysis of tissue sections. Emigrated neutrophils in lung sections (5 mice/group) 24 h after infection were quantified using standard point-counting morphometry (7). […] At least three grids (300 points) were counted for each lung. […]

E. coli = experiment: E. coli-induced bacterial pneumonia in mice; assay type: in vivo, mouse
Description: Bacteria or LPS-induced acute pneumonia. After anesthesia with ketamine hydrochloride (100 mg/kg intraperitoneally (i.p.)) and xylazine (10 mg/kg i.p.), mouse tracheas were surgically exposed and a total volume of 40 μl of saline, a dose of 2×10^6 cfu of E. coli (strain 19138; American Type Culture Collection), a dose of 5×10^8 cfu of Stapyhlococcus aureus (strain 10390; American Type Culture Collection), or the indicated amount of LPS (LPS from E. coli O111:B4 or LPS from E. coli O157:H7; Sigma-Aldrich was instilled intratracheally via an angiocatheter inserted through the trachea and into the left bronchus. Colloidal carbon (1%) was included in the instillate to indicate deposition. After surgery and wound closure, mice were suspended by their front legs to help deliver the instillate deep into the left lobe before being placed back into the cage with soft and warm bedding for recovery. Mice were euthanized by CO2 at each time point. For polyP treatment, Medium Chain Polyphosphate (p100) (Kerafast Inc) was injected intraperitoneally (50 μg/g body weight) 10 min after the instillation of LPS. For treatment with IP6K1 inhibitor TNP (N2-(m-(trifluoromethyl)benzyl) N6-(p-nitrobenzyl)purine), mice were injected intraperitoneally with TNP once a day (20 mg/kg body weight) for 10 days before the induction of lung inflammation. TNP (Tocris Bioscience) was dissolved in DMSO/Tween80/water (1/1/8) at a concentration of 2 mg/ml and was injected directly without dilution.
Neutrophil accumulation. WT and Ip6k1-KO mice were anesthetized and instilled with bacteria or LPS as described above. After 24 h, mice were euthanized by CO2. The chest cavity was opened and a catheter was tied to the trachea. Bronchoalveolar lavage (BAL) was performed (1 mL PBS/15 mM EDTA×10) in each group. The BAL fluid (BALF) was centrifuged at 450×g for 10 min. The total number of cells in the BALF was counted by hemocytometry. Differential cell counts were conducted on cytospin preparations stained with a modified Wright-Giemsa stain (Volu-Sol, Inc.). Neutrophils were identified by their lobular or segmented nuclei. The percentage of neutrophils in the whole population (% PMN) was determined accordingly. Total numbers of neutrophils (#PMN) recruited was calculated as follows: [#PMN]=[cell density]×volume×[% PMN]. Emigrated neutrophils in the alveolar air spaces were also quantified by morphometric analysis of tissue sections. Emigrated neutrophils in lung sections (5 mice/group) 24 h after infection were quantified using standard point-counting morphometry (7). Briefly, mice were euthanized and their hearts tied off to maintain pulmonary blood volume. Lungs were then excised and fixed by intratracheal instillation of Bouin's solution at a pressure of 23 cm H2O and embedded in paraffin. Five to 6 μm-thick sections were cut and stained with hematoxylin and eosin (H&E). Neutrophils could be easily recognized by their lobular or segmented nuclei under high magnification. A counting grid (10×10, covering 70,000 μm2 of the magnified field) was reflected onto the field of view using a drawing tube. Randomly selected fields of pneumonic peripheral lung largely free of non-capillary blood vessels and bronchioles or larger airways were examined. At least three grids (300 points) were counted for each lung. The relative volumes of the parenchymal regions occupied by emigrated neutrophils were calculated by investigators blinded to the identities of the mice and were expressed as a percentage of the total parenchymal region volume (including both tissue and air spaces).
BALF total protein levels and cytokine/chemokine levels. BALF samples were obtained from mice 24 h after E. coli challenge. BAL was performed with 1 ml cold PBS/15 mM EDTA flushed in and out three times. Protein concentrations were measured in BALF using the Bio-Rad protein assay reagent. A standard curve was constructed using BSA. […]

human platelets = experiment: PolyP levels in human platelets; assay type: cell-based; conditions: TNP 20 μM, room temperature, 4 days
[4] = system: human primary neutrophils and platelets; experiment: NPA formation between human neutrophils and platelets; assay type: cell-based
Description: as §1

[5] = system: PtdIns(3,4,5)P3 signaling; experiment: PtdIns(3,4,5)P3 signaling (phospho-Akt western blot) in mouse neutrophils; assay type: cell-based
Description: Mice were treated with TNP for 10 days (20 mg/kg body weight, once a day). Bone marrow neutrophils were isolated and lysed. Total/phosphorylated Akt in cell lysates was detected by western blotting. Relative amounts of phosphorylated Akt were quantified with NIH ImageJ™ software. Data shown are means±SEM of four experiments. *p<0.05 vs. neutrophils isolated from mice treated with DMSO alone

[6] = system: PtdIns(3,4,5)P3 signaling; experiment: PtdIns(3,4,5)P3 signaling in human neutrophils; assay type: cell-based; conditions: human neutrophils treated with TNP

In the case of `O=[N+]([O-])c1ccc(CNc2nc(NCc3cccc(C(F)(F)F)c3)nc3nc[nH]c23)cc1` [TNP, N2-(m-(trifluoromethyl)benzyl) N6-(p-nitrobenzyl)purine], the “intracellular polyP levels in platelets” value (platelets) is reported as “reduced”, the “LPS-elicited polyP secretion” value [1] is reported as “reduced” and the “LPS-induced ex vivo NPA formation” value ([2]; neutrophils and platelets from TNP-treated mice, LPS 1 μg/mL, 2 h) is reported as “inhibited”. For the same molecule, the “infection-induced NPA formation in the lungs of live mice” value [3] was “inhibited”, the “bactericidal activity (bacterial killing in inflamed lungs)” value (E. coli; TNP 20 mg/kg i.p. once a day for 10 days before E. coli instillation) was “much improved” and the edema formation (E. coli; TNP-treated mice) was “less edema formation”. For the same molecule, the “neutrophil accumulation in the inflamed lungs, BALF neutrophil counts” value (E. coli; TNP-treated mice) was “suppressed”, the “neutrophil accumulation in the inflamed lungs, morphometric analysis of lung sections” value (E. coli; TNP-treated mice) was “suppressed” and the “total BALF protein levels” value (E. coli; TNP-treated mice) was “decreased”. For the same molecule, the “pulmonary vascular permeability by lung wet-to-dry ratio” value (E. coli; TNP-treated mice, 24 hr after E. coli instillation) was “reduction”, the “polyP levels in human platelets” value (human platelets) was “reduced” and the NPA formation ([4]; TNP-treated neutrophils and untreated platelets) was “unaltered”. For the same molecule, the “LPS-induced NPA formation” value ([4]; human primary neutrophils and platelets treated with TNP) was “suppressed”, the “PtdIns(3,4,5)P3-mediated cellular functions” value ([5]; mouse neutrophils treated with TNP) was “elevated” and the “PtdIns(3,4,5)P3 signaling, assessed by phospho-Akt” value ([5]; mouse neutrophils, TNP 20 mg/kg once a day for 10 days, bone marrow neutrophils) was “substantially enhanced; also recorded: elevated”. The “PtdIns(3,4,5)P3-mediated cellular functions” value [6] was “elevated” and the “PtdIns(3,4,5)P3 signaling” value [6] was “substantially enhanced”.

HOE140 was tested, and the “LPS-induced NPA formation” value ([2]; neutrophils pretreated with HOE140 150 nM for 5 min) was “inhibited”.

LYS-BK was tested, and the “NPA formation between IP6K1-deficient platelets and neutrophils” value ([2]; Lys-BK 1 μM together with HKa) was “could not restore NPA formation”.

B1: MIP2: a common proinflammatory cytokine (protein, UniProt P10889 28-100, looked up)
C-X-C motif chemokine 2: AVVASELRCQCLKTLPRVDFKNIQSLSVTPPGPHCAQTEVIATLKGGQKVCLDPEAPLVQKIIQKILNKGKAN
For B1, the NPA formation ([2]; MIP2 1 nM in place of LPS) was “failed to induce the same NPA formation”.
